# Source: publication PMC3343029, “Crystal Structure of the Cysteine Desulfurase DndA from Streptomyces lividans Which Is Involved in DNA Phosphorothioation” (PLoS ONE, 2012)
# Molecular target: T1, DndA (Streptomyces lividans, UniProt A7TUX7, C344S)
# T1 construct: full length residues 1-380, N-terminal His-tag (pET28a), expressed in E. coli BL21(DE3); homodimer; residues 2-359 in the model
# Assay: X-ray crystallography, […] Å
# Type: binding
# Details: covalent; Schiff base with Lys200; crystals at pH 5.5 without L-cysteine
# T1 sequence (A7TUX7 entry or part of it C344S): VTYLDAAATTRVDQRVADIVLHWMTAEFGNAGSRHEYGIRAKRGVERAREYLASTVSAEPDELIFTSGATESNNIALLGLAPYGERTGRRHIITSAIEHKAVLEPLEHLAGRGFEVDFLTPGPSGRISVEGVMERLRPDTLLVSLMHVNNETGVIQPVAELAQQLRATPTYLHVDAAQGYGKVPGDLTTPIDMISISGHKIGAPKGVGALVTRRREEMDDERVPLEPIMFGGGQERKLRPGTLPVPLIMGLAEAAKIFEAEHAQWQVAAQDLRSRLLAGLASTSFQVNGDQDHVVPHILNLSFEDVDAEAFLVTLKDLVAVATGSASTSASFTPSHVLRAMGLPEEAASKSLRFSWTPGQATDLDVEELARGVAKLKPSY
compound,measurement,value
Cc1ncc(COP(=O)(O)O)c(C=O)c1O [PLP],"X-ray crystallography, 2.4 Å",there is a PLP cofactor which forms a Schiff base covalent bond with the amino
